In US7335770B2, “Triazine compounds and their analogs, compositions, and methods” (Reddy U5 Therapeutics, Inc., priority 2004, dated 2008):
Counter-ions that a name gives are not always drawn.

system: smooth muscle cells (SMC); assay: anti-proliferation assay (perlecan); format: cell-based; conditions: anti-proliferation assay (perlecan), class of IC50; read-out: Activity (note 1)
Procedure, shortened: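 Compounds are added to smooth muscle cells in growth or serum-free medium. The change in proliferation is measured, e.g. by labelled-nucleotide incorporation into DNA, against untreated cells; IC50 values are given as activity bins.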

Compound | IC50
COc1ccc(Nc2nc(NC3CCCCCC3)nc(Oc3ccc(C#CC(C)(C)O)cc3)n2)cc1Cl [drawing 579, 4-{4-[4-(3-Chloro-4-methoxy-phenyl-amino)-6-cyclo-heptylamino-[1,3,5]triazin-2-yl-oxy]-phenyl}-2-methyl-but-3-yn-2-ol] | < 3000 nM
COc1ccc(Nc2nc(NC3CCCCCC3)nc(Oc3ccccc3C#CC(C)(C)O)n2)cc1Cl [drawing 580, 4-{2-[4-(3-Chloro-4-methoxy-phenyl-amino)-6-cyclo-heptylamino-[1,3,5]triazin-2-yl-oxy]-phenyl}-2-methyl-but-3-yn-2-ol] | < 3000 nM
COc1ccc(Nc2nc(NCCNC(=O)OC(C)(C)C)nc(NC3CCCCCC3)n2)cc1Cl [drawing 588, {2-[4-(3-Chloro-4-methoxy-phenyl-amino)-6-cyclo-heptylamino-[1,3,5]triazin-2-yl-amino]-ethyl}-carbamic acidtert-butyl ester] | < 3000 nM

same assay, conditions: anti-proliferation assay (perlecan); some cells print no unit; read-out: Avg IC-50

Compound | IC50
COc1ccc(Nc2nc(NC3CCCCCC3)nc(Oc3ccc(C#CC(C)(C)O)cc3)n2)cc1Cl [drawing 579, 4-{4-[4-(3-Chloro-4-methoxy-phenyl-amino)-6-cyclo-heptylamino-[1,3,5]triazin-2-yl-oxy]-phenyl}-2-methyl-but-3-yn-2-ol] | 1900 nM
COc1ccc(Nc2nc(NC3CCCCCC3)nc(Oc3ccccc3C#CC(C)(C)O)n2)cc1Cl [drawing 580, 4-{2-[4-(3-Chloro-4-methoxy-phenyl-amino)-6-cyclo-heptylamino-[1,3,5]triazin-2-yl-oxy]-phenyl}-2-methyl-but-3-yn-2-ol] | 2800 nM
COc1ccc(Nc2nc(NCCNC(=O)OC(C)(C)C)nc(NC3CCCCCC3)n2)cc1Cl [drawing 588, {2-[4-(3-Chloro-4-methoxy-phenyl-amino)-6-cyclo-heptylamino-[1,3,5]triazin-2-yl-amino]-ethyl}-carbamic acidtert-butyl ester] | 1250 nM

same assay, conditions: read-out: Activity (note 1)

Compound | IC50
COc1ccc(Nc2nc(NCCCCCNC(=O)CCCCC3SCC4NC(=O)NC43)nc(NC3CCCCCC3)n2)cc1Cl (stereo not drawn) [drawing 594, 5-(2-Oxo-hexahydro-thieno[3,4-d]imi-dazol-4-yl)-pentanoic acid {5-[4-(3-chloro-4-methoxy-phenyl-amino)-6-cyclo-heptylamino-[1,3,5]triazin-2-yl-amino]-pentyl}-amide] | < 3000 nM

same assay, conditions: read-out: Avg IC-50

Compound | IC50
COc1ccc(Nc2nc(NCCCCCNC(=O)CCCCC3SCC4NC(=O)NC43)nc(NC3CCCCCC3)n2)cc1Cl (stereo not drawn) [drawing 594, 5-(2-Oxo-hexahydro-thieno[3,4-d]imi-dazol-4-yl)-pentanoic acid {5-[4-(3-chloro-4-methoxy-phenyl-amino)-6-cyclo-heptylamino-[1,3,5]triazin-2-yl-amino]-pentyl}-amide] | 2200 nM

same assay, conditions: read-out: inhibition at 20 μM (printed in the Avg IC-50 column)

Compound | inhibition at 20 µM
CCN1CCCC1CNc1nc(Nc2ccc(OC)c(F)c2)nc(N2CCN(CC(=O)N3CCCC3)CC2)n1 (stereo not drawn) [drawing 600, 2-{4-[4-[(1-Ethyl-pyrrolidin-2-yl-methyl)-amino]-6-(3-fluoro-4-meth-oxy-phenylamino)-[1,3,5tri-azin-2-yl]-piperazin-1-yl}-1-pyr-rolidin-1-yl-ethanonedihydrogen chloride salt] | 42%

same assay, conditions: using the same activity scale used in Table 3

Compound | activity in anti-proliferation assay (Perlecan), in words
COc1ccc(Nc2nc(NC3CCCCCC3)nc(Oc3ccc(C(C)=O)cc3Cl)n2)cc1Cl [1-{3-Chloro-4-[4-(3-chloro-4-methoxy-phenylamino)-6-cycloheptylamino-[1,3,5]triazin-2-yloxy]-phenyl}-ethanone] | high activity
COc1ccc(Nc2nc(NC3CCCCCC3)nc(OCCOc3ccccc3F)n2)cc1Cl [N-(3-Chloro-4-methoxy-phenyl)-N′-cycloheptyl-6-[2-(2-fluoro-phenoxy)-ethoxy]-[1,3,5]triazine-2,4-diamine] | high activity
COc1ccc(Nc2nc(NC3CCCCCC3)nc(OC3CCCN(C(C)=O)C3)n2)cc1Cl (stereo not drawn) [1-{3-[4-(3-Chloro-4-methoxy-phenylamino)-6-cycloheptylamino-[1,3,5]triazin-2-yloxy]-piperidin-1-yl}-ethanone] | high activity
COc1ccc(Nc2nc(NC3CCCCCC3)nc(-c3c(O)ccc4ccccc34)n2)cc1Cl [1-[4-(3-Chloro-4-methoxy-phenylamino)-6-cycloheptylamino-[1,3,5]triazin-2-yl]-naphthalen-2-ol] | high activity
Cc1ccc(Nc2nc(NC3CCCCCC3)nc(N(C)C3CCN(C)CC3)n2)cc1F [N-Cycloheptyl-N′-(3-fluoro-4-methyl-phenyl)-N″-methyl-N″-(1-methyl-piperidin-4-yl)-[1,3,5]triazine-2,4,6-triamine] | high activity
COc1ccc(Nc2nc(NC3CCCCCC3)nc(NC3CCNCC3)n2)cc1Cl [N-(3-Chloro-4-methoxy-phenyl)-N′-cycloheptyl-N″-piperidin-4-yl-[1,3,5]triazine-2,4,6-triamine] | high activity
COc1ccc(Nc2nc(NC3CCCCCC3)nc(Oc3ccc(C(C)=O)cc3)n2)cc1Cl [1-{4-[4-(3-Chloro-4-methoxy-phenylamino)-6-cycloheptylamino-[1,3,5]triazin-2-yloxy]-phenyl}-ethanone] | high activity
COc1ccc(Nc2nc(NCCCCCNC(=O)CCCCC3SCC4NC(=O)NC43)nc(NC3CCCCCC3)n2)cc1Cl (stereo not drawn) [5-(2-Oxo-hexahydro-thieno[3,4-d]imidazol-4-yl)-pentanoic acid {5-[4-(3-chloro-4-methoxy-phenylamino)-6-cycloheptylamino-[1,3,5]triazin-2-ylamino]-pentyl}-amide] | high activity

system: not given; assay: not given; conditions: not given

Compound | melting point
COc1ccc(Nc2nc(NCCNC(=O)OC(C)(C)C)nc(NC3CCCCCC3)n2)cc1Cl [Example 39, {2-[4-(3-Chloro-4-methoxy-phenylamino)-6-cycloheptylamino-[1,3,5]triazin-2-ylamino]-ethyl}-carbamic acid tert-butyl ester] | 94 °C
COc1ccc(Nc2nc(NNC(=O)CCCCC3SCC4NC(=O)NC43)nc(NC3CCCCCC3)n2)cc1Cl (stereo not drawn) | 154 °C
CN1CCC(N(C)c2nc(Nc3cccc(F)c3)nc(NC3CCCCCC3)n2)CC1 | 86 °C
CCN1CCCC1CNc1nc(Nc2ccc(OCc3ccccc3)c(Cl)c2)nc(NC2CCCCCC2)n1 (stereo not drawn) | 64 °C
COc1ccc(Nc2nc(NC3CCCCCC3)nc(OCC3CCCO3)n2)cc1Cl (stereo not drawn) [Example 30, N-(3-Chloro-4-methoxy-phenyl)-N′-cycloheptyl-6-(tetrahydro-furan-2-ylmethoxy)-[1,3,5]triazine-2,4-diamine] | 61 °C
CCN1CCCC1CNc1nc(NC2CCCCCC2)nc(NC2CCC(O)CC2)n1 (stereo not drawn) [Example 31, 4-{4-Cycloheptylamino-6-[(1-ethyl-pyrrolidin-2-ylmethyl)-amino]-[1,3,5]triazin-2-ylamino}-cyclohexanol] | 92 °C
COc1ccc(Nc2nc(NCCN)nc(NC3CCCCCC3)n2)cc1Cl [Example 40, N-(2-Amino-ethyl)-N′-(3-chloro-4-methoxy-phenyl)-N″-cycloheptyl-[1,3,5]triazine-2,4,6-triamine] | 77 °C
COc1ccc(Nc2nc(NC3CCCCCC3)nc(Oc3ccccc3I)n2)cc1Cl [Example 10, N^2-(3-chloro-4-methoxyphenyl)-N-4-cycloheptyl-6-(2-iodophenoxy)-1,3,5-triazine-4,2-diamine] | 206 to 208 °C
COc1ccc(Nc2nc(NC3CCCCCC3)nc(Oc3ccc(C#CC(C)(C)O)cc3)n2)cc1Cl | 132 to 134 °C
COc1ccc(Nc2nc(NC3CCCCCC3)nc(Oc3ccc(C=O)cc3)n2)cc1Cl [Example 15, 4-[4-(3-chloro-4-methoxyanilino)-6-cycloheptylamino-1,3,5-triazine-2-yl-oxy]-benzaldehyde] | 218 to 220 °C
COc1ccc(Nc2nc(NC3CCCCCC3)nc(Oc3ccc(C(C)=O)cc3Cl)n2)cc1Cl [Example 19, 1-{3-chloro-4-[4-(3-chloro-4-methoxyphenylamino)-6-cycloheptylamino-[1,3,5]triazine-2-yloxy]phenyl}ethanone] | 186 to 196 °C

system: MCP1; assay: inhibition of TNF-induced MCP1; format: cell-based; conditions: @ 10 uM concentration; read-out: TNF-induced MCP1, In-vitro % of inhibition
Protocol: The activity of the compounds of the present invention in inhibiting glycated protein- and AGE-induced inflammation can be determined using the assays described herein and in U.S. patent application Ser. No. 10/026,335, which is herein incorporated in its entirety. Such assays comprise measurement of the specific activity of biological components involved in a known cellular response. The assays provide a measurable response in which the activity of the compounds is determined. One assay comprises measurement of the effects of compounds on an inflammatory response by cells to the presence of a stimulating agent. Yet another assay comprises endothelial cells that are stimulated by the addition of a glycated protein, the stimulating agent. The endothelial cells respond by producing specific cytokines. The amount of cytokines produced are determined by measurement protocols known to those skilled in the art. The compounds of the present invention are then added to the assay and the production of cytokines is measured. From the comparison of the assay without the compound with the assay with the compound, the biological effect of the compound can be determined. The compound may have an inhibitory effect, a stimulatory effect, or no effect at all.
The amount and type of cytokine produced can be determined using immunological methods, such as ELISA assays. The methods of the present invention are not limited by the type of assay used to measure the amount of cytokine produced, and any methods known to those skilled in the art and later developed can be used to measure the amount of cytokines produced in response to the stimulating agent and to the compound having unknown activity.
Assays for determining the activity of compounds capable of modulating inflammation include those taught in U.S. patent application Ser. No. 10/026,335 and 09/969,013, which are both expressly incorporated by reference. In general, once the baseline response to the stimulating agent for the production of cytokines by the endothelial cells is established, thus comprising the control levels for the screening assay, the methods comprise addition of compounds of the present invention. The effect of the compound on the baseline response is determined by comparing the amount of cytokine produced in the presence of the stimulating agent and the amount of cytokine produced in the presence of the stimulating agent and the compound of the present invention. In a preferred method, compounds that have inhibitory effects on the inflammation of the cells in the presence of glycated albumin are then used as therapeutic agents. One or more compounds may be added to the screening assay. Combinations or mixtures of compounds can be added. Different amounts and formulations of the compounds are added to determine the effects on the screening assay. The screening assay may also be used to determine stimulatory compounds or compounds that have no effects in the assay.

Compound | inhibition at 10 µM
COc1ccc(Nc2nc(NC3CCCCCC3)nc(-c3cc(O)ccc3O)n2)cc1Cl | 100%
COc1ccc(Nc2nc(NC3CCCCCC3)nc(OCc3cccc(C)n3)n2)cc1Cl | 48%
COc1ccc(Nc2nc(NC3CCCCCC3)nc(-c3c(O)ccc4ccccc34)n2)cc1Cl [drawing 634] | 100%
COc1ccc(Nc2nc(NC3CCCCCC3)nc(Oc3ccc(C(C)=O)cc3Cl)n2)cc1Cl [drawing 626] | 82%
COc1ccc(Nc2nc(NC3CCCCCC3)nc(Oc3ccc(C(C)=O)cc3)n2)cc1Cl [drawing 624] | 25%
CCc1occc(=O)c1Oc1nc(Nc2ccc(OC)c(Cl)c2)nc(NC2CCCCCC2)n1 [drawing 616] | 48%
COc1ccc(Nc2nc(NC3CCCCCC3)nc(Sc3ccccc3)n2)cc1Cl [drawing 628] | 10%
COc1cc(OC)c(-c2nc(Nc3ccc(OC)c(Cl)c3)nc(NC3CCCCCC3)n2)c(OC)c1 [drawing 632] | 10%
COc1ccc(Nc2nc(NC3CCCCCC3)nc(Oc3ccc(/C=N\O)cc3)n2)cc1Cl [drawing 625] | 100%
COc1ccc(Nc2nc(NC3CCCCCC3)nc(Sc3ccc(F)cc3)n2)cc1Cl [drawing 630] | 15%
COc1ccc(Nc2nc(NC3CCCCCC3)nc(Oc3ccccc3F)n2)cc1Cl [drawing 618] | 10%
